Data on 24 compounds can be found in patent publication US10597370B2, “2-(benzothiazol-2-yl)-2-cyano-acetamide derivatives and their use as endothelial lipase inhibitors” (BRISTOL-MYERS SQUIBB COMPANY, priority 2016, dated 2020).

This assay deals with T1, Endothelial lipase (EL) (Homo sapiens, UniProt Q9Y5X9).
T1 construct: transformed by RAGE technology (Athersys) to overexpress endogenous EL; endogenous in cells; the conditioned medium served as the enzyme source
T1 sequence (Q9Y5X9 21-500): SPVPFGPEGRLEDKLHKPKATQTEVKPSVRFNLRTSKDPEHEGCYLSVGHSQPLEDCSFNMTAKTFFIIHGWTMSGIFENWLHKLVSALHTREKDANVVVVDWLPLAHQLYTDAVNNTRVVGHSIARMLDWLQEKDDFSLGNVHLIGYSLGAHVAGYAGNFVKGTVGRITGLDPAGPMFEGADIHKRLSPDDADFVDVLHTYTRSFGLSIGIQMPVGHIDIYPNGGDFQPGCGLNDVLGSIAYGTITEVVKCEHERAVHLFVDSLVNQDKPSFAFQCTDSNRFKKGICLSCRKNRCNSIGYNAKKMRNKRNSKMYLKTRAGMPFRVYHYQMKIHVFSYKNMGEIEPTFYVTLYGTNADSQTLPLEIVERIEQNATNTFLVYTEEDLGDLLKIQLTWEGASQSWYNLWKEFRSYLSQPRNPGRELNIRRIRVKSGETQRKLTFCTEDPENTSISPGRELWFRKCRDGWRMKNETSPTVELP
The experiment in a line: Endothelial lipase (EL) enzymatic assay with fluorescent substrate A10070 in DMPG vesicles. Type of assay: biochemical. The following applies: conditioned media from HT-1080 cells overexpressing endogenous EL; 20 min preincubation at 37° C. How it is done:
Endothelial lipase activity was measured using a fluorescent substrate, A10070, (Invitrogen, CA) doped into an artificial vesicle containing DMPG (Avanti Polar Lipids) as the excipient. Vesicles were prepared by combining 285 μL of 1 mM DMPG in a 1:1 mixture of MeOH and CHCl3 with 15 μL of 1 mM A10070 in a 1:1 mixture of MeOH and CHCl3. The mixture was dried under nitrogen and resuspended in 150 μL of 50 mM HEPES pH 8.0 buffer containing 100 mM NaCl and 0.2 mM EDTA. The sample was allowed to sit at rt for 15 min and then was sonicated 3×4 mins on ice with a Branson Sonicator using duty cycle 1. This preparation provides vesicles with a mole fraction of 0.05 for the FRET substrate.
The enzymatic assay was measured using white, opaque 96-well half area plates. Each well contained 60 μL of assay buffer (50 mM HEPES pH 8.0, 50 mM NaCl and 1 mM CaCl2) and 2 ul of a DMSO solution containing compound of interest. Conditioned media obtained from HT-1080 cells, which were transformed by RAGE technology (Athersys) to overexpress endogenous EL, was added and the reaction was allowed to incubate for 20 min at 37° C. with gentle agitation. The reaction was started by the addition of 20 μL of a 1:4 dilution of vesicles. The final total reaction volume was 100 μL. The reaction rates were measured on a Gemini plate reader with an excitation wavelength of 488 nm and an emission of 530 nm. Readings were taken every 20 seconds for 10 min with agitation between each reading. The slope of the linear portion of the readout was used to calculate the rate of the reaction.

What is called IC50 is the concentration at which inhibition is half-maximal. A lower IC50 goes with greater potency in that assay. Consider `N#CC(C(=O)NCC(=O)NC1CC1)c1nc2ccc(-c3ccc4c(c3)C(=O)NC4)cc2s1` (stereo not drawn) [Example 6, 2-cyano-N-[(cyclopropyl-carbamoyl)methyl]-2-[6-(3-oxo-2,3-dihydro-1H-isoindol-5-yl)-1,3-benzothiazol-2-yl] acetamide], for which the IC50 was found to be 259 nM. The result for `CN1CCN(C(=O)c2ccc(-c3ccc4nc(C(C#N)C(=O)NCC(=O)NC5CC5)sc4c3)cc2)CC1` (stereo not drawn) [Example 20, 2-cyano-N-[(cyclopropyl-carbamoyl)methyl]-2-{6-[4-(4-methyl-piperazine-1-carbonyl)phenyl]-1,3-benzothiazol-2-yl} acetamide] reads 130 nM; that for `N#CC(C(=O)NCC(=O)NC1CC1)c1nc2ccc(-c3ccccc3)cc2s1` (stereo not drawn) [Example 1, 2-cyano-N-(2-(cyclopropylamino)-2-oxoethyl)-2-(6-phenylbenzo[d]thiazol-2-yl)acetamide], 13 nM; that for `COCCNC(=O)c1ccc(-c2ccc3nc(C(C#N)C(=O)NCC(=O)NC4CC4)sc3c2)cc1` (stereo not drawn) [Example 12, 4-{2-[cyano ({[(cyclopropyl-carbamoyl)methyl]carbamoyl})methyl]-1,3-benzothiazol-6-yl}-N-(2-methoxyethyl) benzamide], 16 nM. The figure for `N#CC(C(=O)NCC(=O)N1CCCC1)c1nc2ccc(-c3ccccc3)cc2s1` (stereo not drawn) [Example 18, 2-cyano-N-[2-oxo-2-(pyrrolidin-1-yl)ethyl]-2-(6-pheny1-1,3-benzothiazol-2-yl)acetamide] is 1320 nM. The result for `CN(C)C(=O)c1ccc(-c2ccc3nc(C(C#N)C(=O)NCC(=O)NC4CC4)sc3c2)cc1F` (stereo not drawn) [Example 3, 4-{2-[cyano ({[(cyclopropyl-carbamoyl)methyl]carbamoyl})methyl]-1,3-benzothiazol-6-yl}-2-fluoro-N,N-dimethyl-benzamide] reads 238 nM.

`N#CC(C(=O)NCC(=O)NC1CC1)c1nc2ncc(-c3ccc(C(N)=O)cc3)cc2s1` (stereo not drawn) [Example 24, 4-{2-[cyano({[(cyclopropyl-carbamoyl)methyl]carbamoyl})methyl]-[1,3]thiazolo[4,5-b]pyridin-6-yl}benzamide]: the IC50 worked out at 31 nM.

The compound `N#CC(C(=O)NCC(=O)NC1CC1)c1nc2ccc(-c3cccc(C(=O)N4CCOCC4)c3)cc2s1` (stereo not drawn) [Example 10, 2-cyano-N-[(cyclopropyl-carbamoyl)methyl]-2-{6-[3-(morpholine-4-carbonyl)phenyl]-1,3-benzothiazol-2-yl]acetamide] showed an IC50 of 18 nM. The figure for `COCCNC(=O)c1ccc(-c2cnc3nc(C(C#N)C(=O)NCC(=O)NC4CC4)sc3c2)cc1` (stereo not drawn) [Example 25, 4-{2-[cyano({[(cyclopropyl-carbamoyl)methyl]carbamoyl})methyl]-[1,3]thiazolo[4,5-b]pyridin-6-yl}-N-(2-methoxyethyl) benzamide] is 40 nM; for `N#CC(C(=O)NCC(=O)NC1CC1)c1nc2ccc(-c3ccc(C(=O)N4CCC4)cc3)cc2s1` (stereo not drawn) [Example 7, 2-{6-[4-(azetidine-1-carbonyl)phenyl]-1,3-benzothiazol-2-yl}-2-cyano-N-[(cyclopropyl-carbamoyl)methyl] acetamide] it is 15 nM; for `N#CC(C(=O)NCC(=O)NC1CC1)c1nc2ccc(-c3ccc(C(N)=O)cc3)cc2s1` (stereo not drawn) [Example 11, 4-{2-[cyano ({[(cyclopropyl-carbamoyl)methyl]carbamoyl})methyl]-1,3-benzothiazol-6-yl} benzamide] it is 26 nM. The result for `N#CC(C(=O)NCC(=O)NC1COC1)c1nc2ccc(-c3ccc(F)nc3)cc2s1` (stereo not drawn) [Example 17, 2-cyano-2-[6-(6-fluoropyridin-3-yl)-1,3-benzothiazol-2-yl]-N-{[(oxetan-3-yl)carbamoyl]methyl} acetamide] reads 67 nM. The figure for `Cn1ccc(-c2ccc3nc(C(C#N)C(=O)NCC(=O)NC4CC4)sc3c2)cc1=O` (stereo not drawn) [Example 4, 2-cyano-N-[(cyclopropyl-carbamoyl)methyl]-2-[6-(1-methyl-2-oxo-1,2-dihydropyridin-4-yl)-1,3-benzothiazol-2-yl] acetamide] is > 10000 nM; for `N#CC(C(=O)NCC(=O)NC1CC1)c1nc2ccc(-c3ccc(C(=O)N4CCCCC4)cc3)cc2s1` (stereo not drawn) [Example 13, 2-cyano-N-[(cyclopropyl-carbamoyl)methyl]-2-{6-[4-(piperidine-1-carbonyl)phenyl]-1,3-benzothiazol-2-yl} acetamide] it is 11 nM. On to `N#CC(C(=O)NCC(=O)NC1CC1)c1nc2ncc(-c3ccccc3)cc2s1` (stereo not drawn) [Example 21, 2-cyano-N-(2-(cyclopropylamino)-2-oxoethyl)-2-(6-phenylthiazolo[4,5-b]pyridin-2-yl)acetamide], for which the concentration for half-maximal inhibition (IC50) came out at 13 nM. The figure for `N#CC(C(=O)NCC(=O)NC1CC1)c1nc2ncc(-c3cccc(C(=O)N4CCOCC4)c3)cc2s1` (stereo not drawn) [Example 22, 2-cyano-N-[(cyclopropyl-carbamoyl)methyl]-2-{6-[3-(morpholine-4-carbonyl)phenyl]-[1,3]thiazolo[4,5-b]pyridin-2-yl}acetamide] is 22 nM. The figure for `N#CC(C(=O)NCC(=O)NC1CC1)c1nc2cc(-c3cccc(C(N)=O)c3)c(F)cc2s1` (stereo not drawn) [Example 26, 3-{2-[cyano({[(cyclopropylcarbamoyl)methyl]carbamoyl})methyl]-6-fluoro-1,3-benzothiazol-5-yl}benzamide] is 21 nM; for `N#CC(C(=O)NCC(=O)NC1CC1)c1nc2ccc(-c3ccc(C(=O)N4CCOCC4)cc3)cc2s1` (stereo not drawn) [Example 14, 2-cyano-N-(2-(cyclopropylamino)-2-oxoethyl)-2-(6-(4-(morpholine-4-carbonyl)phenyl)benzo[d]thiazol-2-yl)acetamide] it is 62 nM.

`N#CC(C(=O)NCC(=O)NC1CC1)c1nc2ccc(-c3ccc4c(c3)CNC4=O)cc2s1` (stereo not drawn) [Example 8, 2-cyano-N-[(cyclopropyl-carbamoyl)methyl]-2-[6-(1-oxo-2,3-dihydro-1H-isoindol-5-yl)-1,3-benzothiazol-2-yl]acetamide] yielded an IC50 of 5 nM. The figure for `N#CC(C(=O)NCC(=O)NC1CC1)c1nc2cc(-c3ccccc3)c(F)cc2s1` (stereo not drawn) [Example 27, 2-cyano-N-[(cyclopropyl-carbamoyl)methyl]-2-(6-fluoro-5-phenyl-1,3-benzothiazol-2-yl)acetamide] is 13 nM.

`N#CC(C(=O)NCC(=O)NC1CC1)c1nc2ccc(-c3ccc(F)nc3)cc2s1` (stereo not drawn) [Example 16, 2-cyano-N-[(cyclopropyl-carbamoyl)methyl]-2-[6-(6-fluoropyridin-3-yl)-1,3-benzothiazol-2-yl] acetamide]: 172 nM corresponded to half-maximal inhibition (IC50). The figure for `N#CC(C(=O)NCC(=O)NC1CC1)c1nc2ccc(-c3cccc(C(=O)N4CCCCC4)c3)cc2s1` (stereo not drawn) [Example 5, 2-cyano-N-[(cyclopropyl-carbamoyl)methyl]-2-{6-[3-(piperidine-1-carbonyl)phenyl]-1,3-benzothiazol-2-yl}acetamide] is 16 nM; for `N#CC(C(=O)NCC(=O)NC1CC1)c1nc2ccc(-c3cccc(C(N)=O)c3)cc2s1` (stereo not drawn) [Example 9, 3-{2-[cyano ({[(cyclopropyl-carbamoyl)methyl]carbamoyl})methyl]-1,3-benzothiazol-6-yl} benzamide] it is 399 nM; for `CN(C)C(=O)c1cccc(-c2ccc3nc(C(C#N)C(=O)NCC(=O)NC4CC4)sc3c2)c1` (stereo not drawn) [Example 2, 3-{2-[cyano ({[(cyclopropyl-carbamoyl)methyl]carbamoyl})methyl]-1,3-benzothiazol-6-yl}-N,N-dimethyl-benzamide] it is 398 nM.
